For one experiment, the target named is T1, NUAK1 (Homo sapiens, UniProt O60285).
T1 sequence (O60285 1-661): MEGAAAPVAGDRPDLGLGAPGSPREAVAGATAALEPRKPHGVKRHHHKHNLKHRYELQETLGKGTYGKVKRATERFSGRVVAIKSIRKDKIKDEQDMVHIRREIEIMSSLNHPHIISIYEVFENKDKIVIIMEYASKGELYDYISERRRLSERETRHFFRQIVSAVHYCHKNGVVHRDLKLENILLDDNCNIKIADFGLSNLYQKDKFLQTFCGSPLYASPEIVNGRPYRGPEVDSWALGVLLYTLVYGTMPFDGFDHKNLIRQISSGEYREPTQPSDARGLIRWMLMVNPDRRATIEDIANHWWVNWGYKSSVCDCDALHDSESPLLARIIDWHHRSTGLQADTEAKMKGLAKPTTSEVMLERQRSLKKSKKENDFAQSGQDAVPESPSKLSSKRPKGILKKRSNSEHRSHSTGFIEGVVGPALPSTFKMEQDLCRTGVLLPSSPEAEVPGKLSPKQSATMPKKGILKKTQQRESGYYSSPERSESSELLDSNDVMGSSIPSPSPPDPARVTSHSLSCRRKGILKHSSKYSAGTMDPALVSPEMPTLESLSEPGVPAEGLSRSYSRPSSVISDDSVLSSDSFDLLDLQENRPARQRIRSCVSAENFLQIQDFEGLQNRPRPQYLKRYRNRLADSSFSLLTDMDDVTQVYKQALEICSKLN
As to the kind of experiment: Kinase activity assay, P81 filter paper binding hot-spot technique (33P-ATP, CHKtide substrate). In kind it is biochemical. The settings on record: final concentration of NUAK1 10 nM; 20 µM CHKtide substrate; 33P-labeled ATP; 2 hours at room temperature; read-out: IC50 (nM) of Test Compounds against NUAK1. As for the experimental part:
(§1) The inhibitory activity of the pyrimidinamine small molecules involved in the present application against NUAK1 and NUAK2 kinases was determined using a kinase activity assay based on the P81 filter paper binding hot-spot technique (Nat Biotechnol. 2011, 29:1039). A brief description is as follows:
(§2) The assay buffer system contained 20 mM Hepes (pH 7.5), 10 mM MgCl2, 1 mM EGTA, 0.01% Brij35 (L23 polyoxyethylene lauryl ether), 0.02 mg/mL BSA (bovine serum albumin), 0.1 mM Na3VO4, 2 mM DTT, and 1% DMSO.
(§3) • 1. A 20 µM substrate solution was prepared with freshly prepared test buffer and CHKtide peptide fragments (Sanchez Y. Science. 1997, 277: 1497-1501) were used as a substrate. • 2. Kinases were added and mixed gently (a final concentration of NUAK1 was 10 nM; and a final concentration of NUAK2 was 50 nM). • 3. Test compounds dissolved in 100% DMSO were each added to the above kinase reaction mixture solution via Acoustic Droplet Ejection (Echo550; nanoliter) and the mixture was incubated for 5 minutes at room temperature. • 4. ^33P-labeled ATP (a ratio of unlabeled ATP to labeled ATP was 25:1 or 2.5:1) was added. • 5. The mixture was incubated for 2 hours at room temperature. • 6. Kinase activity was tested using the P81 filter paper combined with hotspot technology.
(§4) The IC50 values of the test compounds against NUAK1/NUAK2 were calculated according to the above test. For specific results, see Table 1.
(§5) The IC50 values were calculated by using a formula derived from sigmoidal dose-response curve (variable slope): Y = Bottom + (Top-Bottom)/(1+10^((LogEC50-X)*Slope, where X is the logarithm of compound concentration, Y is the response (inhibition rate of kinase activity), and Y rises from bottom to top along the sigmoidal curve as the concentration increases. Table 1: IC50 (nM) of Test Compounds of the Present Application against NUAK1/NUAK2

In a further experiment the target is T2, NUAK2 (Homo sapiens, UniProt Q9H093).
T2 sequence (Q9H093 1-628): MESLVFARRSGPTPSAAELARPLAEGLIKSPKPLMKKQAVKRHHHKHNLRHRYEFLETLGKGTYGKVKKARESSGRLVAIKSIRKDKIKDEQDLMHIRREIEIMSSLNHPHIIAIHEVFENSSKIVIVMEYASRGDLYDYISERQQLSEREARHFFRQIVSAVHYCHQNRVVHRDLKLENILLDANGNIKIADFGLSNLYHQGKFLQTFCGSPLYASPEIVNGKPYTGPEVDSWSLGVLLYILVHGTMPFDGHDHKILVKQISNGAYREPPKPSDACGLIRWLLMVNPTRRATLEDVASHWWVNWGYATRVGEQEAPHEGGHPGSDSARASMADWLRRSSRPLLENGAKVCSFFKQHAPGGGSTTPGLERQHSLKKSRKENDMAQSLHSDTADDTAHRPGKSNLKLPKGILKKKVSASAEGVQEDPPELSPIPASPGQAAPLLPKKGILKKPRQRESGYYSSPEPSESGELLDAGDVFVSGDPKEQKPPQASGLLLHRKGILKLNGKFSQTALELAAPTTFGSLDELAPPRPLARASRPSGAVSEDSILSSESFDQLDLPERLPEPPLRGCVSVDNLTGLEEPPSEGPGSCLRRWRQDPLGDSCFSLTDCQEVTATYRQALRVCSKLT
The experiment is described as above. In kind it is biochemical. The conditions noted are these: final concentration of NUAK2 50 nM; 20 µM CHKtide substrate; 33P-labeled ATP; 2 hours at room temperature; read-out: IC50 (nM) of Test Compounds against NUAK2. As for the experimental part: as §1, §2, §3, §4, §5

Take `CN1CCC(n2cc(Nc3nccc(-c4cnn(C(=O)C5CC5)c4)n3)cn2)CC1` [TDM-181169, Cyclopropyl(4-(2-((1-(1-methylpiperidin-4-yl)-1H-pyrazol-4-yl)amino)pyrimidin-4-yl)-1H-pyrazol-1-yl)methanone]: the values for the concentration for half-maximal inhibition (IC50) on NUAK1 and at NUAK2 were 209 nM and 495 nM, respectively.

Regarding `N#CCNC(=O)c1ccn(-c2ccnc(Nc3cnn(C4CCNCC4)c3)n2)c1` [TDM-181153, N-(Cyanomethyl)-1-(2-((1-(piperidin-4-yl)-1H-pyrazol-4-yl)amino)pyrimidin-4-yl)-1H-pyrrole-3-carboxamide], the IC50 (in general, the concentration that gives 50% inhibition) was 84 nM on NUAK1 and 107 nM at NUAK2.

On to `CCS(=O)(=O)N1CCC(n2cc(-c3ccnc(Nc4cnn(C5CCNCC5)c4)n3)cn2)C1` (centres unmarked) [TDM-181134, 4-(1-(1-(Ethylsulfonyl)pyrrolidin-3-yl)-1H-pyrazol-4-yl)-N-(1-(piperidin-4-yl)-1H-pyrazol-4-yl)pyrimidin-2-amine], for which the 50% inhibitory concentration (IC50) on NUAK1 came to 122 nM; at NUAK2, 622 nM.

Turning to `COc1cc(N2CCN(C)CC2)ccc1Nc1nccc(-n2cc(C(=O)NCC#N)cn2)n1` [TDM-181139, N-(Cyanomethyl)-1-(2-((2-methoxy-4-(4-methylpiperazin-1-yl)phenyl)amino)pyrimidin-4-yl)-1H-pyrazole-4-carboxamide], the IC50 on NUAK1 turned out to be 474 nM; on NUAK2 it was 991 nM.

Regarding `CN1CCN(c2ccc(Nc3nccc(-n4ccc(C(=O)NCC#N)c4)n3)cc2)CC1` [TDM-181147, N-(Cyanomethyl)-1-(2-((4-(4-methylpiperazin-1-yl)phenyl)amino)pyrimidin-4-yl)-1H-pyrrole-3-carboxamide], the IC50 was found to be 19 nM on NUAK1 and 77 nM at NUAK2.

Take `CCCS(=O)(=O)Nc1cnn(-c2nc(Nc3cnc(C4CCNCC4)s3)ncc2Cl)c1` [TDM-181179, N-(1-(5-Chloro-2-((2-(piperidin-4-yl)thiazol-5-yl)amino)pyrimidin-4-yl)-1H-pyrazol-4-yl)propane-1-sulfonamide]: the concentration for half-maximal inhibition (IC50) on NUAK1 came out at 6 nM; at NUAK2, 42 nM.

Consider `N#CCNC(=O)c1ccn(-c2ccnc(Nc3ccc(C4CCNCC4)cc3)n2)c1` [TDM-181154, N-(cyanomethyl)-1-(2-((4-(piperidin-4-yl)phenyl)amino)pyrimidin-4-yl)-1H-pyrrole-3-carboxamide], for which the concentration for half-maximal inhibition (IC50) at NUAK1 came out at 58 nM; on NUAK2, 239 nM.

On to `O=C(Nc1cnn(-c2ccnc(Nc3cnn(C4CCNCC4)c3)n2)c1)[C@@H]1CC1(F)F` [TDM-181159, 2,2-Difluoro-N-(1-2-((1-(piperidin-4-yl)-1H-pyrazol-4-ylamino)pyrimidin-4-yl)-1H-pyrazol-4-yl)cyclopropane-1-carboxamide], for which the values for the IC50 on NUAK1 and at NUAK2 were 337 nM and 419 nM, respectively.

As to “1-(5-chloro-2-((2-methoxy-4-(piperidin-4-yl)phenyl)amino)pyrimidin-4-yl)-N-(cyanomethyl)-1H-pyrrole-3-carboxamide [TDM-181157]”, the IC50 at NUAK1 turned out to be 194 nM; on NUAK2, 487 nM.

Consider `COc1cc(C2CCN(C)C2)ccc1Nc1nccc(-n2ccc(C(=O)NCC#N)c2)n1` (centres unmarked) [TDM-181158], for which the IC50 at NUAK1 was determined as 394 nM.

As to `COc1cc(C2CCNCC2)ccc1Nc1nccc(-n2ccc(C(=O)NCC#N)c2)n1` [TDM-181152, N-(Cyanomethyl)-1-(2-((2-methoxy-4-(piperidin-4-yl)phenyl)amino)pyrimidin-4-yl)-1H-pyrrole-3-carboxamide], the 50% inhibitory concentration (IC50) at NUAK1 turned out to be 977 nM.

As for `CN1CCN(c2ccc(Nc3ncc(Cl)c(-n4ccc(C(=O)NCC5CC5)c4)n3)cc2)CC1` [TDM-181171, 1-(5-Chloro-2-((4-(4-methylpiperazin-1-yl)phenyl)amino)pyrimidin-4-yl)-N-(cyclopropylmethyl)-1H-pyrrole-3-carboxamide], the IC50 on NUAK1 stood at 9 nM; at NUAK2 it was 50 nM.

For the compound `COc1cc(C2CCN(C)CC2)ccc1Nc1nccc(-n2ccc(C(=O)NCC#N)c2)n1` [TDM-181156, N-(cyanomethyl)-1-(2-((2-methoxy-4-(1-methylpiperidin-4-yl)phenyl)amino)pyrimidin-4-yl)-1H-pyrrole-3-carboxamide], the 50% inhibitory concentration (IC50) on NUAK1 came out at 607 nM.

As to `CCCS(=O)(=O)Nc1cnn(-c2nc(Nc3cnn(C4CCNCC4)c3)ncc2Cl)c1` [TDM-181177, N-(1-(5-Chloro-2-(1-(piperidin-4-yl)-1H-pyrazol-4-ylamino)pyrimidin-4-yl)-1H-pyrazol-4-yl)propane-1-sulfonamide], the values for the IC50 at NUAK1 and at NUAK2 were 9 nM and 72 nM, respectively.

On to `COc1cc(N2CCN(C)CC2)ccc1Nc1ncc(Cl)c(-n2ccc(C(=O)NCC#N)c2)n1` [TDM-181155, 1-(5-Chloro-2-((2-methoxy-4-(4-methylpiperazin-1-yl)phenyl)amino)pyrimidin-4-yl)-N-(cyanomethyl)-1H-pyrrole-3-carboxamide], for which the IC50 at NUAK1 was found to be 43 nM; at NUAK2, 69 nM.

For the compound `N#CCNC(=O)c1cnn(-c2ccnc(Nc3cnn(C4CCNCC4)c3)n2)c1` [TDM-181140, N-(Cyanomethyl)-1-(2-((1-(piperidin-4-yl)-1H-pyrazol-4-yl)amino)pyrimidin-4-yl)-1H-pyrazole-4-carboxamide], the IC50 on NUAK1 is 305 nM; on NUAK2 it was 210 nM.

For the compound “2-(1-(piperidin-4-yl)-1H-pyrazol-4-yl)aminopyrimidin-4-yl)-1H-pyrazol-4-ylpropanesulfonamide [TDM-181135]”, the IC50 stood at 34 nM at NUAK1 and 265 nM on NUAK2.

Consider `COc1cc(N2CCN(C)CC2)ccc1Nc1nccc(-n2ccc(C(=O)NCC#N)c2)n1` [TDM-181146, N-(Cyanomethyl)-1-(2-((2-methoxy-4-(4-methylpiperazin-1-yl)phenyl)amino)pyrimidin-4-yl)-1H-pyrrole-3-carboxamide], for which the values for the IC50 on NUAK1 and on NUAK2 were 260 nM and 602 nM, respectively.

On to `CNC(=O)c1ccn(-c2nc(Nc3ccc(N4CCN(C)CC4)cc3)ncc2Cl)c1` [TDM-181170, 1-(5-Chloro-2-((4-(4-methylpiperazin-1-yl)phenyl)amino)pyrimidin-4-yl)-N-methyl-1H-pyrrole-3-carboxamide], for which the IC50 amounted to 14 nM at NUAK1 and 78 nM on NUAK2.
